One series relates to P. falciparum strain D6. The experiment in a line: SYBR green antiplasmodial assay, strain D6. It is filed as cell-based, Plasmodium falciparum.
Another series concerns P. falciparum strain Dd2. The experiment in a line: SYBR green antiplasmodial assay, strain Dd2. Format: cell-based, Plasmodium falciparum. To be noted: read-out: IC50, nM, P. falciparum strain Dd2.
In series [1] the test system is P. falciparum strain Tm90-C2B. The experiment in a line: SYBR green antiplasmodial assay, strain Tm90-C2B. Format: cell-based, Plasmodium falciparum. To be noted: read-out: IC50, nM, P. falciparum strain Tm90-C2B.
Protocol: (§1) Automated pipetting and dilution was carried out with the aid of a programmable Precision 2000 robotic station (BioTek, Winooski, Vt.). An initial parasitemia of 0.2% was obtained by addition of normal uninfected red cells to a stock culture of asynchronous parasite infected red cells (PRBC).
In series [2] the target is Plasmodium falciparum cytochrome bc1 complex (Plasmodium falciparum, UniProt Q02768). The series is described as follows: Inhibition of cytochrome bc1 complex. Format: biochemical.
Series [3] concerns P. yoelii (Kenya strain, MR4 MRA-428). The experiment in a line: Single dose cure (SDC) of patent blood stage murine malaria infection. It is filed as in vivo, Plasmodium yoelii. To be noted: mice; for minimal effective dose: Plasmodium yoelii, po, 720 h, single dose, read-out: Lowest fully effective single dose cure P. yoelii; for lowest fully protective single-dose cure (SDC): single oral dose in PEG-400, parasite free 30 days. The protocol:
As described above, mice (female, CF1, Charles River Labs) were infected intravenously with 10^5 P. yoelii (Kenya strain, MR4 MRA-428/Murine LDH Elevating Virus-Free) parasitized erythrocytes from a donor animal. Drug administration commenced the day after the animals were inoculated (Day 1). The test compounds were dissolved in PEG-400 and administered by oral gavage once. On the 5th day blood films were prepared and the extent of parasitemia was determined by microscopic examination of Giemsa stained smears. Animals remaining parasite free 30 days after the last drug dose were considered cured of their infection.

Series [4] in a line: In vivo efficacy of earlier prodrug versus parent compound. Particulars: compared to the parent compound ELQ-300.
The nature of series [5]: Stability of prodrug to metabolism.
The conditions of series [6]: human, microsomes.
Protocol: The loss of substrate was monitored by LC/MS/MS. Midazolam was monitored as a well characterized positive control. Midazolam represents a drug with comparatively low metabolic stability. Incubations were conducted in the absence of the NADPH regenerating system to monitor for potential P450-independent metabolism.
In the next series the test system is P. falciparum. The series is described as follows: In vitro intrinsic antiplasmodial activity against all test strains. It is filed as cell-based, Plasmodium falciparum.
For the next series, the system named is P. yoelii. The experiment in a line: 4-day suppression test in P. yoelii infected mice. Format: in vivo, Plasmodium yoelii. Particulars: dosing on 4 sequential days, smears on Day 5.
Series [7] can be described thus: Oral bioavailability in rats. Format: in vivo. To be noted: relative to ELQ-300.
The nature of series [8]: Chemical stability in solvent / acidic conditions. Format: physicochemical. As to the method: Ethyl chloroformate is then added dropwise. The reaction goes to completion in minutes upon the addition of the chloroformate forming one regioisomer in very high yield. […] Results are summarized in Scheme 1
A short description of series [9]: Oral bioavailability in mice. Format: in vivo. To be noted: relative to ELQ-300.
Where [10] appears, read: Plasmodium falciparum, D6, 72 h; read-out: IC50, nM, P. falciparum strain D6.
Where [11] appears, read: Plasmodium falciparum, DD2, 72 h, multidrug resistant strain.
The mark [12] stands for this setting: Plasmodium falciparum, TM90, 72 h, resistant to chloroquine and atovaquone.
Setting [13] is: Plasmodium falciparum, D6; read-out: P. falciparum strain D6, IC50.
The mark [14] stands for this setting: single oral doses in the range of 1 to 20 mg/kg.
The mark [15] stands for this setting: 72 h, chloroquine sensitive strain; Table 1 of Example 4; read-out: IC50, nM, P. falciparum strain D6.
Setting [16] is: 72 h, multidrug resistant strain.
Setting [17] is: 72 h, resistant to chloroquine and atovaquone.

Where two headings read alike, the source gives them in different places.

Protocol for P. falciparum strain D6: as §1
Protocol for P. falciparum strain Dd2: as §1

Turning to `O=C1C(O)=C([C@H]2CC[C@H](c3ccc(Cl)cc3)CC2)C(=O)c2ccccc21` [Atovaquone, reference compound], the IC50 in the series with P. falciparum strain D6 (setting [10]) was 0.2 nM; in the series on P. falciparum strain Dd2 (setting [11]) it was 0.2 nM; in series [1] (setting [12]), > 250 nM.
As to `CCN(CC)CCCC(C)Nc1ccnc2cc(Cl)ccc12` (centres unmarked) [Chloroquine, reference compound], the IC50 in the series on P. falciparum strain D6 (Plasmodium falciparum, D6, 72 h, read-out: IC50, nM, P. falciparum strain D6) was determined as 10 nM; in the series on P. falciparum strain Dd2 (Plasmodium falciparum, DD2, 72 h), 137 nM; in series [1] (Plasmodium falciparum, TM90, 72 h), 98 nM.
Take `COc1cc2[nH]c(C)c(-c3ccc(Oc4ccc(OC(F)(F)F)cc4)cc3)c(=O)c2cc1Cl` [ELQ-300, reference compound]: the “inhibition of cytochrome bc1 complex” value in series [2] is “sub-nanomolar”. The IC50 with P. falciparum strain D6 (setting [10]) amounted to 6 nM; in the series on P. falciparum strain D6 (setting [13]), 3.1 nM; in the series with P. falciparum strain Dd2 (setting [11]), 6 nM; in series [1] (setting [12]), 2 nM. Besides, the minimal effective dose in series [3] was > 20 mg/kg. Besides, the parasitemia suppression result in [3] (setting [14]) was “suppressed parasitemia completely”. In addition, in series [3] (setting [14]), the recrudescence entry is “recrudescence occurred within two weeks of dosing”.
With `COc1cc2nc(C)c(-c3ccc(Oc4ccc(OC(F)(F)F)cc4)cc3)c(OC(=O)N(C)C)c2cc1Cl` [ELQ-301], the “in vivo efficacy compared to ELQ-300” value in [4] was “inferior in vivo efficacy”. For the same molecule, the stability to metabolism result in series [5] was “stable to metabolism”.
As to `COc1cc2nc(C)c(-c3ccc(Oc4ccc(OC(F)(F)F)cc4)cc3)c(OCOC(=O)OC(C)C)c2cc1Cl` [ELQ-330], the IC50 with P. falciparum strain D6 (setting [15]) was determined as 62 nM; in the series on P. falciparum strain Dd2 (setting [16]), 38 nM; in [1] (setting [17]), 47 nM. Moreover, the “lowest fully protective single-dose cure (SDC)” value in series [3] is 5 mg/kg.
Regarding `CCOC(=O)OCOc1c(-c2ccc(Oc3ccc(OC(F)(F)F)cc3)cc2)c(C)nc2cc(OC)c(Cl)cc12` [ELQ-331], in series [6], the t1/2 turned out to be 37.7 min. For the same molecule, the values for the IC50 (in the series with P. falciparum strain D6 (setting [15]); in [1] (setting [17])) were 6 nM and 4 nM, respectively. The “lowest fully protective single-dose cure (SDC)” value in [3] is given as 2.5 mg/kg.
With `COC(=O)Oc1c(-c2ccc(Oc3ccc(OC(F)(F)F)cc3)cc2)c(C)nc2cc(OC)c(Cl)cc12` [ELQ-336, 6-chloro-7-methoxy-2-methyl-3-(4-(4-(trifluoromethoxy)phenoxy)phenyl)quinolin-4-yl methyl carbonate], the concentration for half-maximal inhibition (IC50) with P. falciparum strain D6 (setting [13]) was 2.5 nM. The minimal effective dose in series [3] turned out to be 4 mg/kg.
Take `CCOC(=O)Oc1c(-c2ccc(Oc3ccc(OC(F)(F)F)cc3)cc2)c(C)nc2cc(OC)c(Cl)cc12` [ELQ-337, 6-chloro-7-methoxy-2-methyl-3-(4-(4-(trifluoromethoxy)phenoxy)phenyl)quinolin-4-yl ethyl carbonate]: in the series with P. falciparum, the “IC50 values against all test strains” value is listed as “low to sub-nanomolar range”. Moreover, the IC50 in the series with P. falciparum strain D6 (setting [13]) came to 2.5 nM. In addition, in the series with P. yoelii, the ED50 is 0.02 mg/kg/day, the ED90 came to 0.05 mg/kg/day and the ED99 is 0.075 mg/kg/day. The oral bioavailability entry in series [7] is reported as “enhanced over ELQ-300”. Besides, in series [8] (50/50 mixtures of methanol and water at pH 3 and 8 overnight), the chemical stability result is reported as “chemically stable”. In addition, in series [9], the oral bioavailability result is “enhanced over ELQ-300”. Moreover, the minimal effective dose in series [3] was found to be 3 mg/kg. Further, the “animals in which single dose failed” value in series [3] (1 mg/kg, on Day 12) was 4/4. The “single dose cures (SDC), animals cured” value in series [3] (doses as low as 3 mg/kg) was 4/4.
For `COCCOC(=O)Oc1c(-c2ccc(Oc3ccc(OC(F)(F)F)cc3)cc2)c(C)nc2cc(OC)c(Cl)cc12` [ELQ-354, 6-chloro-7-methoxy-2-methyl-3-(4-(4-(trifluoromethoxy)phenoxy)phenyl)quinolin-4-yl(2-methoxyethyl) carbonate], the IC50 in the series on P. falciparum strain D6 (setting [13]) was 3 nM. Moreover, the minimal effective dose in [3] is 3 mg/kg.
On to `COc1cc2nc(C)c(-c3ccc(Oc4ccc(OC(F)(F)F)cc4)cc3)c(OC(=O)OC3CCS(=O)(=O)C3)c2cc1Cl` (centres unmarked) [ELQ-355, 6-chloro-7-methoxy-2-methyl-3-(4-(4-(trifluoromethoxy)phenoxy)phenyl)quinolin-4-yl (1,1-dioxidotetrahydrothiophen-3-yl) carbonate], for which, in the series with P. falciparum strain D6 (setting [13]), the IC50 was determined as 3.9 nM. The minimal effective dose in [3] came to 4 mg/kg.
As to `COc1cc2nc(C)c(-c3ccc(Oc4ccc(OC(F)(F)F)cc4)cc3)c(OC(=O)C(C)(C)C)c2cc1Cl` [ELQ-357, 6-chloro-7-methoxy-2-methyl-3-(4-(4-(trifluoromethoxy)phenoxy)phenyl)quinolin-4-yl pivalate], in the series on P. falciparum strain D6 (setting [13]), the half-maximal inhibitory concentration (IC50) turned out to be 3.5 nM. Moreover, in series [3], the minimal effective dose was 4 mg/kg.
As to `COc1cc2nc(C)c(-c3ccc(Oc4ccc(OC(F)(F)F)cc4)cc3)c(OC(=O)OC(C)(C)C)c2cc1Cl` [ELQ-358, tert-butyl (6-chloro-7-methoxy-2-methyl-3-(4-(4-(trifluoromethoxy)phenoxy)phenyl)quinolin-4-yl) carbonate], in the series on P. falciparum strain D6 (setting [13]), the IC50 was 6 nM. The minimal effective dose in [3] is > 4 mg/kg.
For `C=CCOC(=O)Oc1c(-c2ccc(Oc3ccc(OC(F)(F)F)cc3)cc2)c(C)nc2cc(OC)c(Cl)cc12` [ELQ-359, allyl (6-chloro-7-methoxy-2-methyl-3-(4-(4-(trifluoromethoxy)phenoxy)phenyl)quinolin-4-yl) carbonate] the same measures were 2.5 nM and 4 mg/kg.
On to `COc1cc2nc(C)c(-c3ccc(Oc4ccc(OC(F)(F)F)cc4)cc3)c(OC(C)=O)c2cc1Cl` [ELQ-370], for which, in [8], the “chemical stability to acid” value is on record as “chemically unstable to mildly acidic conditions” and the stability in methanol entry was “decomposes rapidly in methanol”.
`COc1cc2nc(C)c(-c3ccc(Oc4ccc(OC(F)(F)F)cc4)cc3)c(OC(=O)OCC3COC(=O)O3)c2cc1Cl` (centres unmarked) [ELQ-373, 6-chloro-7-methoxy-2 methyl-3-(4-(4-(trifluoromethoxy)phenoxy)phenyl)quinolin-4-yl ((2-oxo-1,3-dioxolan-4-yl)methyl) carbonate]: the IC50 in the series with P. falciparum strain D6 (setting [13]) is 3.1 nM. In series [3], the minimal effective dose turned out to be 4 mg/kg.
Take `COc1cc2nc(C)c(-c3ccc(Oc4ccc(OC(F)(F)F)cc4)cc3)c(OC(=O)OCC3COC(C)(C)O3)c2cc1Cl` (centres unmarked) [ELQ-374, 6-chloro-7-methoxy-2-methyl-3-(4-(4-(trifluoromethoxy)phenoxy)phenyl)quinolin-4-yl ((2,2-dimethyl-1,3-dioxolan-4-yl)methyl) carbonate]: in the series with P. falciparum strain D6 (setting [13]), the half-maximal inhibitory concentration (IC50) was determined as 2.7 nM. Moreover, the minimal effective dose in [3] was 4 mg/kg.
For `COc1cc2nc(C)c(-c3ccc(Oc4ccc(OC(F)(F)F)cc4)cc3)c(OC(=O)C(C)C)c2cc1Cl` [ELQ-375, 6-chloro-7-methoxy-2-methyl-3-(4-(4-(trifluoromethoxy)phenoxy)phenyl)quinolin-4-yl isobutyrate] the same measures were 8.2 nM and 4 mg/kg.
Take `COc1cc2nc(C)c(-c3ccc(Oc4ccc(OC(F)(F)F)cc4)cc3)c(OC(=O)c3ccccc3)c2cc1Cl` [ELQ-379, 6-chloro-7-methoxy-2-methyl-3-(4-(4-(trifluoromethoxy)phenoxy)phenyl)quinolin-4-yl benzoate]: the IC50 with P. falciparum strain D6 (setting [13]) was 2.5 nM.
Regarding `CCOC(=O)OC(C)Oc1c(-c2ccc(Oc3ccc(OC(F)(F)F)cc3)cc2)c(C)nc2cc(OC)c(Cl)cc12` (centres unmarked) [ELQ-387], the values for the IC50 (with P. falciparum strain D6 (setting [15]); in the series on P. falciparum strain Dd2 (setting [16]); in series [1] (setting [17])) were 326 nM, 141 nM and 231 nM, respectively.

For orientation: IC50 means the concentration that inhibits the measured activity by half. For orientation: ED50 means the dose at which the effect has come halfway, by size or by number of responders. Lower therefore signals an effect at a small dose.

(Values after patent US10584098B2, “Quinolone-3-diarylethers” (OREGON HEALTH & SCIENCE UNIVERSITY, priority 2015, dated 2020).)
